Results: patent US20170071976A1, “PHARMACEUTICAL SOLUTION HAVING ANTI-TUMOR EFFECT-ENHANCING AND TOXICITY-REDUCING EFFECT, AND PHARMACEUTICAL COMPOSITION COMPRISING SAME” (priority 2014, published 2017)

Assays:
[1] = system: human colon cancer HCT-116 cells; experiment: Cell cycle by PI single staining (flow cytometry); assay type: cell-based; settings: 72 hours
Experimental: Effect of deuterium oxide on the cell cycle of human lung cancer A549 cells and human colon cancer HCT-116 cells
A KGA511 Cell cycle assay kit was provided by NANJING KEYGEN BIOTECH. CO., LTD.
The flow cytometer was FACS Calibur provided by Becton-Dickinson, US.
(§1) 1.1. Warm water at 37° C. to 40° C. was prepared, a cryogenic vial of cells was taken out of liquid nitrogen and immediately put into the 37° C.-40° C. warm water, followed by vigorous shaking until the cryogenic liquid was completely thawed; 1.2. The suspension of cryogenic cells was transferred to a centrifugal tube, 5 ml culture medium was added thereto, and the cells were well mixed in the medium by gentle pipetting; 1.3. The cell suspension was centrifuged at 800 to 1,000 rpm for 5 min, and the supernatant was discarded; 1.4. A complete culture medium was added to the cell pellet which was well mixed by gentle pipetting, the cell suspension was transferred to a culture flask, and the cells were cultured by supplementing culture medium.
2.1. The original culture medium was removed by pipetting when the cell coverage reached 80% to 90% in the culture bottle; 2.2. A suitable amount of trypsin (0.25%) was added to digest for 1 to 2 min; 2.3. When all the cells became round, an equal volume of culture medium containing serum was added to cease the digestion; 2.4. The cells were blown by pipetting to suspend, then drawn into a 15 ml centrifugal tube, and centrifuged at 1000 rpm for 5 min; 2.5. The supernatant was discarded, and the cells were re-suspended in 1 to 2 ml culture medium and transferred to a culture bottle for further culturing.
1. Cells growing in the exponential phase were digested and inoculated to a 6-well plate; on the next day, after the cells attached to the wall, cell culture media containing corresponding test drugs were added according to different groups, and a negative control group was also set; 2. After treatment with test drugs for 72 hours, cells were digested with 0.25% pancreatin (EDTA-free) and collected; 3. The cells were washed with PBS once (centrifuged at 2,000 rpm for 5 min), and 5×10^5 cells were collected; 4. The prepared suspension of individual cells was fixed with 70% (v/v) ethanol for 2 hours (or overnight), and stored at 4° C.; before staining, the fixing solution was washed away with PBS (if necessary, the cell suspension was filtered once through a 200-mesh screen); 5. 100 μl RNase A was added, and the cells were water-bathed at 37° C. for 30 min; 6. 400 μl PI was added and well mixed for staining, and the cells were kept at 4° C. in darkness for 30 min; 7. In a detection apparatus, red fluorescence with an excitation wavelength of 488 nm was recorded.

[2] = system: human colon cancer HCT-116 cells; experiment: Cell invasion assayed by Transwell; assay type: cell-based; settings: for Number of cells: invaded HCT-116 cells, control 76.0 ± 4.6; for Number of cells (HCT-116): invaded cells, control 65.0 ± 12.0
Experimental: Inhibition of invasion of human colon cancer HCT-116 cells and human lung cancer A549 cells by deuterium oxide in combination with 5-fluorouracil or gemcitabine (by the Transwell method)
as §1, with “vial” for “vial of cells”
1. […] After incubation of cells with the test drugs for 24 hours, serum was removed, and the cells were incubated under starvation with an incomplete culture medium for 24 hours; 3. Matrigel was placed at 4° C. in advance to thaw overnight; 4. Thawed Matrigel was 1:1 diluted with the incomplete culture medium, 30 μl diluted Matrigel was added to the upper compartment of Transwell and incubated at 37° C. for 120 min to gel the Matrigel; 5. Cells from different groups were digested, counted, and then adjusted to a density of 1×10^5 cells/ml with the incomplete culture medium, 100 μl cell suspension was added to the upper compartment (small compartment) of Transwell, and 500 μl medium containing 20% FBS was added to the lower compartment of Transwell; 6. A 24-well cell culture plate was placed in an incubator at 37° C. and 5% CO2 to culture the cells for 24 hours; 7. Cell counting: cells in the Matrigel and the upper compartment were wiped off with a cotton swab, the Transwell was removed, followed by inversion and air drying, 500 μl medium containing 0.1% crystal violet was added to the 24-well plate, the small compartment was placed in the medium to allow the membrane to be immersed in the dye, removed after holding at 37° C. for 30 min, washed with PBS, and photographed in 3 fields along the diameter (200× magnification) for cell counting. 8. The assay was repeated one more time.

[3] = system: human colon cancer HCT-116 cells (a moderately drug resistant strain); experiment: MTT assay: deuterium oxide in combination with 5-FU; assay type: cell-based; settings: read-out: Inhibition of cell growth (%) (5-FU alone)
Experimental: In vitro inhibition of growth of human colon cancer HCT-116 cells (a moderately drug resistant strain) by deuterium oxide in combination with 5-fluorouracil (5-FU)
Method: 5-fluorouracil was diluted with the sodium chloride deuterium oxide solution according to the concentrations shown in Table 2 and added to a cell culture plate; the in vitro inhibition of tumor cell growth was measured by the MTT assay in the same manner as Example 14.
The assay was repeated one more time.

[4] = system: malignant tumors; settings: as a single drug in clinical settings; cited from earlier work
[5] = system: adult human; experiment: Theoretical extrapolation of the toxic deuterium oxide body content to an adult human; settings: adult human of 60 kg body weight
Description: Deuterium oxide (heavy water, D2O, Mw: 20.03, CAS No. 7789-20-0) can be isolated from seawater. A normal body of adult human contains about 5 g deuterium oxide. […] Based on this experimental result, theoretically, assuming the body weight of an adult human is 60 kg, deuterium oxide that reaches 18 kg in the body starts to cause toxicity. However, it is actually impossible for a human body to have 18 kg deuterium oxide. […] Therefore, deuterium oxide should be a non-toxic substance [D. M. Czajka: Am. J. Physiol.

[6] = system: dogs; settings: exogenous deuterium oxide; cited from earlier work

O=c1[nH]cc(F)c(=O)[nH]1 [Example 5-FU, 5-fluorouracil]
G1 Phase ([1]; 5-FU 12.5 ug/ml in NS): 32.69 ± 8.66%
G2 Phase ([1]; 5-FU 12.5 ug/ml in NS): 41.24 ± 2.97%
S Phase ([1]; 5-FU 12.5 ug/ml in NS): 26.07 ± 11.32%
Number of cells ([2]; 5-FU 0.195 ug/ml in NS): 66.0 ± 2.6
Number of cells ([2]; 5-FU 0.39 ug/ml in NS): 47.3 ± 4.0
Number of cells ([2]; 5-FU 0.78 ug/ml in NS): 31.3 ± 1.5
Number of cells ([2]; 5-FU 1.56 ug/ml in NS): 23.0 ± 4.6
Number of cells ([2]; 5-FU 3.125 ug/ml in NS): 12.0 ± 2.0
Number of cells ([2]; 5-FU 6.25 ug/ml in NS): 10.7 ± 1.5
Number of cells ([2]; 5-FU 12.5 ug/ml in NS): 6.3 ± 0.6
inhibition at 0.02 µg/mL ([3]; 5-FU final conc. 0.02 μg/ml): 2.18%
inhibition at 0.05 µg/mL ([3]; 5-FU final conc. 0.05 μg/ml): 2.55%
inhibition at 0.1 µg/mL ([3]; 5-FU final conc. 0.10 μg/ml): 2.3%
inhibition at 0.2 µg/mL ([3]; 5-FU final conc. 0.20 μg/ml): 3.24%
inhibition at 0.39 µg/mL ([3]; 5-FU final conc. 0.39 μg/ml): 6.98%
inhibition at 0.78 µg/mL ([3]; 5-FU final conc. 0.78 μg/ml): 9.82%
inhibition at 1.56 µg/mL ([3]; 5-FU final conc. 1.56 μg/ml): 11%
inhibition at 3.13 µg/mL ([3]; 5-FU final conc. 3.13 μg/ml): 18.6%
inhibition at 6.25 µg/mL ([3]; 5-FU final conc. 6.25 μg/ml): 26.5%
inhibition at 12.5 µg/mL ([3]; 5-FU final conc. 12.5 μg/ml): 35.3%
overall response rate [4]: 10%

[2H]O[2H] [Deuterium oxide]
G2 Phase ([1]; deuterium oxide 30% v/v, control 8.06 ± 1.89): 4.21 ± 0.95%
S Phase ([1]; deuterium oxide 30% v/v, control 9.40 ± 1.83): 6.61 ± 1.41%
G1 Phase ([1]; deuterium oxide 30% v/v, control 82.53 ± 1.76): 89.19 ± 3.81%
amount in the body that starts to cause toxicity [5]: 18 kg
concentration in the body that causes a toxic effect [6]: 30%
Number of cells (HCT-116) ([2]; deuterium oxide 1.8% (v/v)): 29.3 ± 5.1
Number of cells (HCT-116) ([2]; deuterium oxide 7.5% (v/v)): 3.7 ± 0.6
Number of cells (HCT-116) ([2]; deuterium oxide 15% (v/v)): 3.0 ± 1.0
Number of cells (HCT-116) ([2]; deuterium oxide 30% (v/v)): 1.70 ± 0.6
Number of cells (HCT-116) ([2]; deuterium oxide […] (v/v)): 16.3 ± 3.2
